One data set has as its target hmGluR5a receptor (Homo sapiens (Human), UniProt P41594). Description: Calcium Flux Assay. Particulars: hmGluR5a/L38-20 cells, glutamate-evoked [Ca2+]i. The class given is cell-based. Here is the method:
The activity of compounds was examined against the hmGluR5a receptor stably expressed in mouse fibroblast Ltk− cells (the hmGluR5a/L38-20 cell line). See generally Daggett et al., Neuropharmacology 34:871-886 (1995). Receptor activity was detected by changes in intracellular calcium ([Ca^2+]i) measured using the fluorescent calcium-sensitive dye, fura-2. hmGluR5a/L38-20 cells were plated onto 96-well plates, and loaded with 3 µM fura-2 for 1 h. Unincorporated dye was washed from the cells, and the cell plate was transferred to a custom-built 96-channel fluorimeter (SIBIA-SAIC, La Jolla, Calif.) which is integrated into a fully automated plate handling and liquid delivery system. Cells were excited at 350 and 385 nm with a xenon source combined with optical filters. Emitted light was collected from the sample through a dichroic mirror and a 510 nm interference filter and directed into a cooled CCD camera (Princeton Instruments). Image pairs were captured approximately every 1 s, and ratio images were generated after background subtraction. After a basal reading of 20 s, an EC80 concentration of glutamate ([…]) was added to the well, and the response evaluated for another 60 s. The glutamate-evoked increase in [Ca^2+]i in the presence of the screening compound was compared to the response of glutamate alone (the positive control).
(Calcium assays in cells follow changes in intracellular calcium, usually with a dye or a luminescent sensor.)

The target of data set [1] is metabotropic glutamate receptor subtype 5 (Rattus norvegicus (Rat), UniProt P31424). Description: [3H]-mGluR5 Antagonist Binding to Rodent Brain Membranes. The procedure: In accordance with Anderson J J, Rao S P, Rowe B, Giracello D R, Holtz G, Chapman D F, Tehrani L, Bradbury M J, Cosford N D, Varney M A, [^3H]Methoxymethyl-3-[(2-methyl-1,3-thiazol-4-yl)ethynyl]pyridine binding to metabotropic glutamate receptor subtype 5 in rodent brain: in vitro and in vivo characterization. J Pharmacol Exp Ther. 2002 December; 303 (3):1044-51, membranes were prepared (as described in Ransom R W and Stec N L (1988) Cooperative modulation of [^3H]MK-801 binding to the N-methyl-D-aspartate receptor-ion channel complex by L-glutamate, glycine, and polyamines. J Neurochem 51:830-836) using whole rat brain, or mGlu5^+/+ or mGlu5^−/− whole mouse brain.
Chain of metabotropic glutamate receptor subtype 5 (P31424 21-1203): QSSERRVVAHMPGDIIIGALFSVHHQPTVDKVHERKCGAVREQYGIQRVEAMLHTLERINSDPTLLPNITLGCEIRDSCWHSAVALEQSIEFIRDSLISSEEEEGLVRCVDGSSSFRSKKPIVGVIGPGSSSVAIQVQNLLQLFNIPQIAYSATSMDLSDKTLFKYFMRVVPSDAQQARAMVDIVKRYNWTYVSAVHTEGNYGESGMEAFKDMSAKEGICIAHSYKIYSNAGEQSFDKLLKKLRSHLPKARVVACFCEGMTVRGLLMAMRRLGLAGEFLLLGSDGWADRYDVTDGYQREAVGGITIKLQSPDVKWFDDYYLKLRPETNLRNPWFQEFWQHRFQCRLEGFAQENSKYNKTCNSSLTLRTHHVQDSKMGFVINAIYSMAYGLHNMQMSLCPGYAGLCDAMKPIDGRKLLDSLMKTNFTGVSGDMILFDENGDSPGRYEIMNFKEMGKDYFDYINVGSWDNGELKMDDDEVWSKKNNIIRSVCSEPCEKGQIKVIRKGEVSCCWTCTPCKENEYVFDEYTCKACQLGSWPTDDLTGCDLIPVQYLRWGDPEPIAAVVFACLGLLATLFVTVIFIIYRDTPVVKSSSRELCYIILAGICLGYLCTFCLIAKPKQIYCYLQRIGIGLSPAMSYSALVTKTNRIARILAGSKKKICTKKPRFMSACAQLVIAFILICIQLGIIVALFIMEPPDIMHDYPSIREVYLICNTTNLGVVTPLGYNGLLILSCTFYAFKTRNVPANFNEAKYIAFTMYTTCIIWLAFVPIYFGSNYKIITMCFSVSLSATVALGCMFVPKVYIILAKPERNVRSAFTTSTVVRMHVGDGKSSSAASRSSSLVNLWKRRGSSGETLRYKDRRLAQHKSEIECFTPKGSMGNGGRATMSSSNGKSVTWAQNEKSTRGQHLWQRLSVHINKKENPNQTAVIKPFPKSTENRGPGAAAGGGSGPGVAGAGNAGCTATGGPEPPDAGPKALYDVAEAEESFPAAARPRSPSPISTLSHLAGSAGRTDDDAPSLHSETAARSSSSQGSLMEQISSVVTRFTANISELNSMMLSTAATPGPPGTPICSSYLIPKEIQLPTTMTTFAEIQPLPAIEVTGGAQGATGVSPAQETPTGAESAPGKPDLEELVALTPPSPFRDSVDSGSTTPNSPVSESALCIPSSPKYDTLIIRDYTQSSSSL
Binding assays were performed as described in Schaffhauser H, Richards J G, Cartmell J, Chaboz S, Kemp J A, Klingelschmidt A, Messer J, Stadler H, Woltering T and Mutel V (1998) In vitro binding characteristics of a new selective group II metabotropic glutamate receptor radioligand, [^3H]LY354740, in rat brain. Mol Pharmacol 53:228-233) at room temperature with slight modifications. Briefly, membranes were thawed and washed once with assay buffer (50 mM HEPES, 2 mM MgCl2, pH 7.4), followed by centrifugation at 40,000×g for 20 min. The pellet was resuspended in assay buffer and briefly homogenized with a Polytron.
For protein linearity experiments, increasing concentrations of membrane protein were added to 96-well plates in triplicate and binding was initiated by addition of 20 nM [^3H]methoxymethyl-3-[(2-methyl-1,3-thiazol-4-yl)ethynyl]pyridine. The assay was incubated for 2 h and non-specific binding was determined using 10 μM MPEP. The binding was terminated by rapid filtration through glass-fiber filters (Unifilter-96 GF/B plate, Packard) using a 96-well plate Brandel cell harvester. Following addition of scintillant, the radioactivity was determined by liquid scintillation spectrometry. Protein measurements were performed by BioRad-DC Protein assay using bovine serum albumin as the standard.
Saturation binding experiments were performed in triplicate with increasing concentrations of [^3H]methoxymethyl-3-[(2-methyl-1,3-thiazol-4-yl)ethynyl]pyridine (1 pM to 100 nM). The time course of association was measured by the addition of 10 nM [^3H]methoxymethyl-3-[(2-methyl-1,3-thiazol-4-yl)ethynyl]pyridine to the membranes at different time points (0-240 min), followed by filtration. Dissociation was measured by the addition of 100 μM unlabeled methoxymethyl-3-[(2-methyl-1,3-thiazol-4-yl)ethynyl]pyridine at different time points to membranes previously incubated for 3 h with 10 nM [^3H]methoxymethyl-3-[(2-methyl-1,3-thiazol-4-yl)ethynyl]pyridine. For competition experiments, 100 μg membrane protein and 10 nM [^3H]methoxymethyl-3-[(2-methyl-1,3-thiazol-4-yl)ethynyl]pyridine was added to wells containing increasing concentration of the test compound in duplicate (methoxymethyl-3-[(2-methyl-1,3-thiazol-4-yl)ethynyl]pyridine or MPEP). [^3H]-3-Methoxy-5-(pyridin-2-ylethynyl)pyridine may also be used as the radioligand in the procedure described above. (See, Cosford, N. D. P.; Roppe, J.; Tehrani, L.; Seiders, T. J.; Schweiger, E. J. et al. [3H]-Methoxymethyl-MTEP and [3H]-methoxy-PEPy): Potent and selective radioligands for the Metabotropic Glutamate Subtype 5 (mGlu5) Receptor. Bioorg. Med. Chem. Lett. 2003, 13, 351-354.)

The target of the next data set is hmGluR5 (Homo sapiens (Human), UniProt P41594). Description: Phosphatidylinositol Hydrolysis (IP) Assay. The class given is cell-based. The note with it: hmGluR5/L38-20 cells. The procedure: Inositol phophate assays were performed as described by Berridge et al. (1982) (Berridge et al, (1982) Biochem. J. 206: 587-5950; and Nakajima et al., J. Biol. Chem. 267:2437-2442 (1992)) with slight modifications. Mouse fibroblast Ltk cells expressing hmGluR5 (hmGluR5/L38-20 cells) were seeded in 24-well plates at a density of 8×10^5 cells/well. […] of [^3H]-inositol (Amersham PT6-271; Arlington Heights, Ill.; specific activity=17.7 Ci/mmol) was added to each well and incubated for 16 h at 37° C. Cells were washed twice and incubated for 45 min in 0.5 ml of standard Hepes buffered saline buffer (HBS; 125 mM NaCl, 5 mM KCl, […] MgS04, 1.8 mM CaCl2, 20 mM HEPES, 6 mM glucose, pH to 7.4). The cells were washed with HBS containing 10 mM LiCl, and 400 ill buffer added to each well. Cells were incubated at 37° C. for 20 min. For testing, […], of 10× compounds used in the practice of the invention [made in HBS/LiCl (100 mM)] was added and incubated for 10 minutes. Cells were activated by the addition of […] glutamate, and the plates left for 1 hour at 37° C.
Chain of hmGluR5 (P41594 other isoform, or with tags, fused parts or gaps): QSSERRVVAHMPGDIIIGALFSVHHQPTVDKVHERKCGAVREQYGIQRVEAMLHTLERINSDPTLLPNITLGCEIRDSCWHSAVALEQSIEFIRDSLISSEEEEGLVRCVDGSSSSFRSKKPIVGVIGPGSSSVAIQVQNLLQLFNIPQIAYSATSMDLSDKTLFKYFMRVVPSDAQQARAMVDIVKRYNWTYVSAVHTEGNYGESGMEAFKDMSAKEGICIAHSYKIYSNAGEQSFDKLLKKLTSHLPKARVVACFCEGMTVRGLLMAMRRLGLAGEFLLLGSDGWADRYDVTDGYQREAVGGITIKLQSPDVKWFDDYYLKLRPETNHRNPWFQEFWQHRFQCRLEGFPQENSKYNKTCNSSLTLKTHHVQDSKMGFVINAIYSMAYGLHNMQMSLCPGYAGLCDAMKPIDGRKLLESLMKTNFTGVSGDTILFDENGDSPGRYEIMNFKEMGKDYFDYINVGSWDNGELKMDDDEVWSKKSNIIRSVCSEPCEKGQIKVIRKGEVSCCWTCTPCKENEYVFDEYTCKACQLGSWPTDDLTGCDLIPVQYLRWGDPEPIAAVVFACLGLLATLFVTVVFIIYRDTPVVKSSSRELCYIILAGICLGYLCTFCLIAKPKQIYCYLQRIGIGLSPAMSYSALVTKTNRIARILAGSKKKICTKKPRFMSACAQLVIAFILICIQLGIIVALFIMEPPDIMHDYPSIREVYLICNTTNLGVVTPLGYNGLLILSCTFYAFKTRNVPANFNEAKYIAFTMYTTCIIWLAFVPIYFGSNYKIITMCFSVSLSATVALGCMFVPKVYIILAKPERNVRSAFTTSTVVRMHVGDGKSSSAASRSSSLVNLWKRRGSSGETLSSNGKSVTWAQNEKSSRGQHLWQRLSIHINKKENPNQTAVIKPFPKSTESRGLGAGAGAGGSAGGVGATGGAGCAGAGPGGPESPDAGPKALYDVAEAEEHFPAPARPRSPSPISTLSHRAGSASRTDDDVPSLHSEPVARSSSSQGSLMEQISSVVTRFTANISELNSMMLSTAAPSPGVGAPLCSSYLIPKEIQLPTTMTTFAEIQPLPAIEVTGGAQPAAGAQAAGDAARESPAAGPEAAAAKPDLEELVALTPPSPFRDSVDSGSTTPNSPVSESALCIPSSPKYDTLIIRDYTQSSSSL
The incubations were terminated by the addition of 1 mL ice-cold methanol to each well. In order to isolate inositol phosphates (IPs), the cells were scraped from wells, and placed in numbered glass test tubes. […] Scintillant was added to each vial, and the vials shaken, and counted in a scintillation counter after 2 hours. […]

The conditions of data set [2]: aqueous medium.

Chain of hmGluR5a receptor (P41594 other isoform, or with tags, fused parts or gaps): as above

For the compound `Cc1nc(C#Cc2ccc(-n3ccc4ccncc43)nc2)cs1` [Example 18, 1-{5-[(2-methyl-1,3-thiazol-4-yl)ethynyl]pyridin-2-yl}-1H-pyrrolo[2,3-c]pyridine], the IC50 at hmGluR5a receptor was determined as 4.9 nM; on hmGluR5, 2 nM. The compound also returned a Ki in data set [1] of 19.3 nM.
Turning to `Cc1nc(C#Cc2ccc(-c3cc(F)cc(C#N)c3)nc2)cs1` [Example 1, 3-fluoro-5-{5-[(2-methyl-1,3-thiazol-4-yl)ethynyl]pyridin-2-yl}benzonitrile], the values for the IC50 at hmGluR5a receptor and against hmGluR5 were 3 nM and 33 nM, respectively. The Ki in data set [1] came to 20 nM.
Take `C(#Cc1nccs1)c1ccccc1.Cc1ccc(S(=O)(=O)O)cc1` [2-(phenylethynl)-1,3-thiazole]: the solubility entry in data set [2] is on record as “soluble in aqueous medium”.
For `Cc1nc(C#Cc2cnc(N3CCCC(C)C3)nc2)cs1` (stereo not drawn) [Example 103], at hmGluR5a receptor, the IC50 worked out at 1.6 nM. In data set [1], this compound had a Ki of 1.6 nM.
`Cc1nc(C#Cc2cnc(-c3ccccc3Cl)nc2)cs1` [Example 15, 2-(2-chlorophenyl)-5-[(2-methyl-1,3-thiazol-4-yl)ethynyl]pyrimidine]: at hmGluR5a receptor, the IC50 is 1 nM. In data set [1], this compound had a Ki of 2.6 nM.
The like results for `Cc1ccc(C)c(-c2ccc(C#Cc3csc(C)n3)cn2)c1` [Example 38] were, in that order, 13 nM and 8 nM.
The like results for `COc1cccc(-c2ccc(C#Cc3csc(C)n3)cn2)c1F` [Example 51] were, in that order, 8 nM and 9 nM.
With `Cc1nc(C#Cc2ccc(C3CC4CCC3C4)nc2)cs1` (stereo not drawn) [Example 73], the IC50 on hmGluR5a receptor is 4 nM. For the same compound, the Ki in data set [1] is 2 nM.
With `Cc1nc(C#Cc2cnc(N3CCCCC3)nc2)cs1` [Example 24, 5-[(2-methyl-1,3-thiazol-4-yl)ethynyl]-2-piperidin-1-ylpyrimidine], the half-inhibitory concentration (IC50) on hmGluR5a receptor came to 0.3 nM. Moreover, the Ki in data set [1] came to 2.6 nM.
In the same order, the values of `Cc1nc(C#Cc2cncc(-c3ccc(CO)cc3)c2)cs1` [Example 65] are 6 nM and 8 nM.
As for `Cc1nc(C#Cc2cnc(N3CCCC3C)nc2)cs1` (stereo not drawn) [Example 21, 2-(2-methylpyrrolidin-1-yl)-5-[(2-methyl-1,3-thiazol-4-yl)ethynyl]pyrimidine], at hmGluR5a receptor, the IC50 came out at 1.5 nM. The compound also registered a Ki in data set [1] of 1.5 nM.
`Cc1nc(C#Cc2cnc(-c3cccc(C)c3C)nc2)cs1` [Example 16, 2-(2,3-dimethylphenyl)-5-[(2-methyl-1,3-thiazol-4-yl)ethynyl]pyrimidine]: at hmGluR5a receptor, the IC50 amounted to 0.4 nM. In data set [1], this compound yielded a Ki of 8.6 nM.
Consider `CSc1ccccc1-c1ncc(C#Cc2csc(C)n2)cn1` [Example 14, 5-[(2-methyl-1,3-thiazol-4-yl)ethynyl]-2-[2-(methylthio)phenyl]pyrimidine], for which the IC50 on hmGluR5a receptor is 0.8 nM. The Ki in data set [1] stood at 7.5 nM.
Consider `Cc1nc(C#Cc2cncc(-c3cccc(Cl)c3)c2)cs1` [Example 43], for which the IC50 at hmGluR5a receptor came out at 11 nM. Further, the Ki in data set [1] was 0.65 nM.
Turning to `Cc1nc(C#Cc2cncc(N(C)c3cccnc3)c2)cs1` [Example 82], the IC50 at hmGluR5a receptor is 3 nM. Also, the Ki in data set [1] amounted to 2 nM.
In the same order, the values of `Cc1nc(C#Cc2cnc(NC(C)(C)C)nc2)cs1` [Example 22, N-(tert-butyl)-5-[(2-methyl-1,3-thiazol-4-yl)ethynyl]pyrimidin-2-amine] are 1.2 nM and 0.9 nM.
For the compound `Cc1nc(C#Cc2cncc(Cl)c2)cs1` [Example 90], the IC50 on hmGluR5a receptor turned out to be 1.5 nM. The compound also showed a Ki in data set [1] of 4 nM.
For the compound `COc1ccc(C)cc1-c1ccc(C#Cc2csc(C)n2)cn1` [Example 47], the IC50 on hmGluR5a receptor was 11 nM. This compound had a Ki in data set [1] of 19 nM.
With `Cc1nc(C#Cc2ccc(SC(C)(C)C)nc2)cs1` [Example 28, 2-(tert-butylthio)-5-[(2-methyl-1,3-thiazol-4-yl)ethynyl]pyridine], the IC50 on hmGluR5a receptor amounted to 1.7 nM. For the same compound, the Ki in data set [1] came out at 0.9 nM.
The like results for `Cc1nc(C#Cc2cnc(SC(C)(C)C)nc2)cs1` [Example 29, 2-(tert-butylthio)-5-[(2-methyl-1,3-thiazol-4-yl)ethynyl]pyrimidine] were, in that order, 0.5 nM and 10 nM.
As to `Cc1nc(C#Cc2ccc(-c3ccccc3C)nc2)cs1` [Example 5, 2-(2-methylphenyl)-5-[(2-methyl-1,3-thiazol-4-yl)ethynyl]pyridine], the IC50 at hmGluR5a receptor was 6.3 nM. In data set [1], this compound yielded a Ki of 1 nM.
On to `Cc1nc(C#Cc2cnc(O[C@@H](C)c3ccccc3)nc2)cs1` [Example 95], for which, at hmGluR5a receptor, the IC50 was 8 nM. The same compound yielded a Ki in data set [1] of 9 nM.
For the compound `Cc1nc(C#Cc2ccc(NC3CCC3)nc2)cs1` [Example 42], on hmGluR5a receptor, the IC50 worked out at 11 nM. This compound had a Ki in data set [1] of 17 nM.
The like results for `COc1ccc(C#N)cc1-c1ccc(C#Cc2csc(C)n2)cn1` [Example 37] were, in that order, 14 nM and 10 nM.
In the same order, the values of `Cc1nc(C#Cc2cnc(-c3ccccc3C)nc2)cs1` [Example 13, 2-(2-methylphenyl)-5-[(2-methyl-1,3-thiazol-4-yl)ethynyl]pyrimidine] are 0.6 nM and 0.6 nM.

One may read the IC50 as the midpoint of a concentration-inhibition curve. A word on the Ki: it is a dissociation constant, usually derived from enzyme kinetics or from competition with a known ligand.

These data come from patent US8609852B2, “Thiazolyl mGluR5 antagonists and methods for their use” (Merck Sharp & Dohme Corp., priority 2004, dated 2013).
